Measured values as given in patent US20060069084A1, “Methods of inhibiting kinases” (priority 2001, published 2006).

Tests used:
Assay type in all cases: biochemical
Conditions in all cases: Table 6; inhibit 50% of activity at 50 μM
JAK1 = biological target: T1, JAK1 (Homo sapiens, UniProt P23458); assay: JAK1 kinase domain capture-based ELISA kinase assay
T1 construct: The kinase domain of humanJAK1 was amplified from U937mRNA; His tag (from pFastBac HTb vector; nickel chelate purification) (N); made in house; host or cells: baculovirus; virus made in Sf9, large-scale expression in High Five insect cells
Experimental: (§1) For screening purposes, compounds were diluted in 96 well plates at a concentration of 50 μM or 20 μM. Plates were warmed at 37° C. for 30 minutes before assay.
The kinase domain of humanJAK1 was amplified from U937mRNA using the polymerase chain reaction with the following primers: […]
JAK1 PCR products were cloned into the pFastBac HTb expression vector (Gibco) via the Xho I and Kpn I sites. The JAK1 plasmid was then transformed into competent DH10Bac cells (Gibco), and the recombinant baculovirus produced prepared for transfection into Sf9 insect cells.
(§2) Baculovirus preparations from each of the JAK family members were infected into five litres of High Five cells (Invitrogen) grown in High Five serum free medium (Invitrogen) to a cell density of approximately 1-2×10^6 cells/ml. Cells are infected with virus at a MOI of 0.8-3.0. Cells were harvested and lysed. JAK kinase domains were purified by affinity chromatography on a Probond (Invitrogen) nickel chelate affinity column.
(§3) The biotinylated substrate biotin-EGPWLEEEEEAYGWMDF-NH2 (SEQ ID NO:9) (final concentration 5 μM) was used as substrate, and tyrosine phosphorylation was quantitated following transfer to an avidin coated ELISA plate using peroxidase-linked anti-phospho-tyrosine antibody PY20.
(§4) Inhibitors were added to the assays fifteen minutes prior to the addition of ATP. Inhibitors were added in aqueous DMSO, with DMSO concentrations never exceeding 1%.

JAK2 = biological target: T2, JAK2 (Homo sapiens, UniProt O60674); assay: JAK2 kinase domain capture-based ELISA kinase assay
T2 construct: The kinase domain of humanJAK2 was amplified from U937mRNA; His tag (from pFastBac HTc vector; nickel chelate purification) (N); made in house; host or cells: baculovirus; virus made in Sf9, large-scale expression in High Five insect cells
Experimental: as §1
The kinase domain of humanJAK2 was amplified from U937mRNA using the polymerase chain reaction with the following primers: […]
JAK2 PCR products were cloned into the pFastBac HTc expression vector (Gibco) via the Sal I and Not I sites. The JAK2 plasmid was then transformed into competent DH10Bac cells (Gibco), and the recombinant baculovirus produced prepared for transfection into Sf9 insect cells.
as §2, §3, §4

JAK3 = biological target: T3, JAK3 (Homo sapiens, UniProt P52333); assay: JAK3 kinase domain capture-based ELISA kinase assay
T3 construct: The kinase domain of humanJAK3 was amplified from U937mRNA; His tag (from pFastBac HTb vector; nickel chelate purification) (N); made in house; host or cells: baculovirus; virus made in Sf9, large-scale expression in High Five insect cells
Experimental: as §1
The kinase domain of humanJAK3 was amplified from U937mRNA using the polymerase chain reaction with the following primers: […]
JAK3 PCR products were cloned into the pFastBac HTb expression vector (Gibco) via the Xho I and Kpn I sites. The JAK3 plasmid was then transformed into competent DH10Bac cells (Gibco), and the recombinant baculovirus produced prepared for transfection into Sf9 insect cells.
as §2, §3, §4

TYK2 = biological target: T4, TYK2 (Homo sapiens, UniProt P29597); assay: TYK2 kinase domain capture-based ELISA kinase assay
T4 construct: The kinase domain of humanTYK2 was amplified from A549 mRNA; His tag (from pBlueBacHis2A vector; nickel chelate purification) (N); made in house; host or cells: baculovirus; virus made in Sf9, large-scale expression in High Five insect cells
T4 sequence (P29597 897-1176 limits assumed): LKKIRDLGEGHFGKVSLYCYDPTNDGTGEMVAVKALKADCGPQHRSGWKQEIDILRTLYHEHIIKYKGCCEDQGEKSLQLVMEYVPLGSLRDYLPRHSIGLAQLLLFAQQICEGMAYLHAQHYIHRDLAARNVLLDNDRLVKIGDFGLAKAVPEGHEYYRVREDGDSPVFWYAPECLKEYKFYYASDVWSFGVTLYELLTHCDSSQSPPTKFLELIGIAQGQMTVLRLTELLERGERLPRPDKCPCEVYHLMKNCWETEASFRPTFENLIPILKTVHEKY
Experimental: as §1
The kinase domain of humanTYK2 was amplified from A549 mRNA using the polymerase chain reaction with the following primers: […]
TYK2 PCR products were cloned into pBlueBacHis2A (Invitrogen) via the EcoRI site. The recombinant TYK2 baculovirus produced was prepared for transfected into Sf9 insect cells.
as §2, §3, §4

T2 sequence (O60674 849-1124 limits assumed): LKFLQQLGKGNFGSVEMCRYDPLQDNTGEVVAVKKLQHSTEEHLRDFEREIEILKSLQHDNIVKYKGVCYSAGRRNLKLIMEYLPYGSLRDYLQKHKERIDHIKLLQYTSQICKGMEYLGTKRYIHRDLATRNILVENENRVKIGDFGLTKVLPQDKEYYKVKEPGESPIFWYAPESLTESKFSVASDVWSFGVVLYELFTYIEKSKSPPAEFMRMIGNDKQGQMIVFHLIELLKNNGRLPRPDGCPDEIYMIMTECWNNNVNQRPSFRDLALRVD
T1 sequence (P23458 875-1153 limits assumed): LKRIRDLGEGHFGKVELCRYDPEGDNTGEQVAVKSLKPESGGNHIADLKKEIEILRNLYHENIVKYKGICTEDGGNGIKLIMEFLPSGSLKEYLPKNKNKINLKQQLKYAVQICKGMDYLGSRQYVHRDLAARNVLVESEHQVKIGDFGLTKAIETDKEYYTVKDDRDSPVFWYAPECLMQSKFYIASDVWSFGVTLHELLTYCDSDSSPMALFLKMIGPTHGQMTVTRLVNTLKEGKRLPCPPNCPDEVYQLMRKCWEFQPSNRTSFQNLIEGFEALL
T3 sequence (P52333 822-1111 limits assumed): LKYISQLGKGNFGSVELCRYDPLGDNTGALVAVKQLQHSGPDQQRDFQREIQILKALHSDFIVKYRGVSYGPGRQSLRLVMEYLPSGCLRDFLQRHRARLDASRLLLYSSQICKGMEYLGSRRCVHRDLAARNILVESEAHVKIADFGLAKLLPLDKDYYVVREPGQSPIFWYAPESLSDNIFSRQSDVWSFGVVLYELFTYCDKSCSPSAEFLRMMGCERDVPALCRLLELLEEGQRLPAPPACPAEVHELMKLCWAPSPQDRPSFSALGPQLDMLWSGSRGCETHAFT

Row | SMILES | IC50 (JAK1) [µM] | IC50 (JAK2) [µM] | IC50 (JAK3) [µM] | IC50 (TYK2) [µM]
1 | CN(C)c1ccc(-c2cn3ccnc3c(NC3CC3)n2)cc1 | > 50 | > 50 | < 50 | > 50
2 | c1ccc(Nc2nc(-c3ccco3)cn3ccnc23)cc1 | > 50 | < 50 | > 50 | < 50
3 | Oc1cccc(-c2cn3ccnc3c(N3CCOCC3)n2)c1 | > 50 | < 50 | > 50 | > 50
4 | CCCC/C=C/c1cn2ccnc2c(Nc2ccc(OC)nc2)n1 | > 50 | < 50 | > 50 | > 50
5 | COc1ccc(Nc2nc(-c3ccccc3Cl)cn3ccnc23)cn1 | > 50 | < 50 | > 50 | > 50
6 | CCCC/C=C/c1cn2ccnc2c(NC2CCC(O)CC2)n1 (centres unmarked) | > 50 | > 50 | < 50 | > 50
7 | c1cncc(-c2cn3ccnc3c(NCCc3ccncc3)n2)c1 | > 50 | > 50 | < 50 | > 50
8 | c1cncc(CCNc2nc(-c3ccco3)cn3ccnc23)c1 | > 50 | > 50 | < 50 | > 50
9 | COc1ccc(Nc2nc(-c3c(C)cccc3C)cn3ccnc23)cn1 | > 50 | > 50 | < 50 | > 50
10 | c1ccc(CN2CC[C@@H](Nc3nc(-c4ccc5c(c4)OCO5)cn4ccnc34)C2)cc1 | > 50 | > 50 | > 50 | < 50
11 | O=C(NCCO)c1ccc(-c2cn3ccnc3c(Nc3ccccc3)n2)cc1 | < 50 | < 50 | > 50 | < 50
12 | COc1cc(-c2cn3ccnc3c(Nc3ccccc3)n2)cc(OC)c1OC | < 50 | < 50 | > 50 | > 50
13 | FC(F)(F)Oc1cccc(-c2cn3ccnc3c(Nc3ccccc3)n2)c1 | > 50 | < 50 | > 50 | > 50
14 | c1ccc2cc(-c3cn4ccnc4c(Nc4ccc(N5CCOCC5)cc4)n3)ccc2c1 | < 50 | < 50 | > 50 | > 50
15 | CN(C)CCNC(=O)c1cccc(-c2cn3ccnc3c(Nc3ccc(Cl)cc3)n2)c1 | < 50 | < 50 | > 50 | > 50
16 | O=C(O)CCc1ccc(-c2cn3ccnc3c(NCCc3ccncc3)n2)cc1 | > 50 | > 50 | < 50 | > 50
17 | Fc1ccccc1-c1cn2ccnc2c(NCCc2cccnc2)n1 | < 50 | < 50 | < 50 | > 50
18 | CCNc1nc(-c2ccc(O)c(OC)c2)cn2ccnc12 | < 50 | < 50 | < 50 | > 50
19 | O=C(O)CCc1ccc(-c2cn3ccnc3c(NCc3ccco3)n2)cc1 | > 50 | > 50 | < 50 | < 50
20 | CC(=O)Nc1ccc(Nc2nc(-c3ccc4c(c3)OCO4)cn3ccnc23)cc1 | < 50 | < 50 | < 50 | < 50
21 | Cc1ccc(S(=O)(=O)Nc2ccc(Nc3nc(-c4ccc(CCC(=O)O)cc4)cn4ccnc34)cc2)cc1 | < 50 | < 50 | > 50 | < 50
22 | CCCNc1nc(-c2cccc(N)c2)cn2ccnc12 | < 50 | > 50 | > 50 | > 50
23 | c1coc(-c2cn3ccnc3c(Nc3ccc(N4CCOCC4)cc3)n2)c1 | < 50 | < 50 | > 50 | < 50

The next lines start with the values.

Row | IC50 (JAK1) [µM] | IC50 (JAK2) [µM] | IC50 (JAK3) [µM] | IC50 (TYK2) [µM] | SMILES
24 | < 50 | < 50 | > 50 | < 50 | Fc1ccccc1-c1cn2ccnc2c(Nc2ccc(N3CCOCC3)cc2)n1
25 | < 50 | > 50 | > 50 | < 50 | Fc1ccc(-c2cn3ccnc3c(Nc3ccc4[nH]ccc4c3)n2)cc1Cl
26 | < 50 | < 50 | > 50 | > 50 | COc1ccc(Nc2nc(-c3ccccc3F)cn3ccnc23)cn1
27 | < 50 | < 50 | > 50 | < 50 | Brc1cn2ccnc2c(Nc2ccccc2)n1
28 | < 50 | > 50 | > 50 | > 50 | CCNc1nc(-c2ccc(N(C)C)cc2)cn2ccnc12
29 | < 50 | < 50 | > 50 | < 50 | NCc1cccc(-c2cn3ccnc3c(Nc3ccccc3)n2)c1
30 | < 50 | < 50 | > 50 | < 50 | c1cn2cc(-c3ccc4c(c3)OCO4)nc(Nc3ccc(N4CCOCC4)cc3)c2n1
31 | < 50 | < 50 | > 50 | < 50 | COc1ccccc1-c1cn2ccnc2c(Nc2ccc(N3CCOCC3)cc2)n1
32 | < 50 | > 50 | > 50 | > 50 | CN1CCCN(c2nc(-c3cccc4ccccc34)cn3ccnc23)CC1
33 | < 50 | < 50 | > 50 | < 50 | COc1ccccc1-c1cn2ccnc2c(Nc2ccc(CCO)cc2)n1
34 | < 50 | < 50 | > 50 | < 50 | Cc1ccc(Nc2nc(-c3ccccc3Cl)cn3ccnc23)cc1NS(C)(=O)=O
35 | < 50 | < 50 | > 50 | < 50 | CC(=O)Nc1cccc(-c2cn3ccnc3c(Nc3ccc(N4CCOCC4)cc3)n2)c1
36 | < 50 | < 50 | < 50 | < 50 | OCCc1ccc(Nc2nc(-c3ccccc3F)cn3ccnc23)cc1
37 | < 50 | < 50 | > 50 | < 50 | O=C(O)c1cccc(-c2cn3ccnc3c(Nc3ccc4cn[nH]c4c3)n2)c1
38 | < 50 | < 50 | > 50 | < 50 | O=C(O)c1ccc(-c2cn3ccnc3c(Nc3ccc4cn[nH]c4c3)n2)cc1
39 | < 50 | < 50 | > 50 | < 50 | COc1ccc(Nc2nc(-c3ccccc3OC)cn3ccnc23)cn1
40 | < 50 | < 50 | > 50 | < 50 | c1coc(-c2cn3ccnc3c(Nc3ccc4[nH]ccc4c3)n2)c1
41 | < 50 | < 50 | > 50 | < 50 | Clc1ccccc1-c1cn2ccnc2c(Nc2ccc3[nH]ccc3c2)n1
42 | < 50 | < 50 | < 50 | < 50 | CN(C)CCNC(=O)c1ccc(-c2cn3ccnc3c(Nc3ccc(C(=O)O)cc3)n2)cc1
43 | < 50 | < 50 | < 50 | < 50 | CN(C)C(=O)COc1cccc(Nc2nc(-c3cccc(N)c3)cn3ccnc23)c1
44 | < 50 | < 50 | < 50 | < 50 | CCCC/C=C/c1cn2ccnc2c(Nc2ccc(N(CC)CCO)cc2)n1
